The source of these data is US20250145633A1, “SUBSTITUTED FURANOPYRIMIDINE COMPOUNDS AS PDE1 INHIBITORS” (Dart NeuroScience, LLC, priority 2017, published 2025).

In one assay the target is human PDE1B enzyme (Homo sapiens (Human), UniProt Q01064). Kind of assay: IMAP TR-FRET PDE1B enzymatic assay. The class given is biochemical. To be noted: negative log of half-maximal molar inhibitory concentration; 200 nM FAM-cAMP; values given as bins. The procedure, abridged: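 Full-length GST-tagged human PDE1B (250 pg/well) in IMAP BSA buffer with 10 U/ml calmodulin and 2.5 mM CaCl2; compound pre-incubated 5 min at room temperature, then 200 nM (final) FAM-cAMP for 30 min. IMAP binding reagent/Tb added, 1 h; TR-FRET 520/490 ratio read. IC50 from sigmoidal dose-response fit.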
As to `Cc1oc2ncnc(NC3(C)CC3)c2c1C(=O)N1CCc2c(ncnc2NC(C)C)C1` [Example 762, 6-Methyl-N-(1-methylcyclopropyl)-5-f{4-[(propan-2-yl)amino]-5H,6H,7H,8H-pyrido[3,4-d]pyrimidine-7-carbonyl}furo[2,3-d]pyrimidin-4-amine], the “PDE1b (pIC50)” value is greater than 8.

As for `Cc1oc2ncnc(NC3(C)CC3)c2c1C(=O)N1CCc2c(OCF)ccnc2C1` [Example 763, 5-[4-(Fluoromethoxy)-5,6,7,8-tetrahydro-1,7-naphthyridine-7-carbonyl]-6-methyl-N-(1-methylcyclopropyl)furo[2,3-d]pyrimidin-4-amine], the “PDE1b (pIC50)” value is listed as greater than 8.

On to `Cc1oc2ncnc(NC3(C)CC3)c2c1C(=O)N1CCc2c(cccc2OCF)C1` [Example 764, 5-[5-(Fluoromethoxy)-1,2,3,4-tetrahydroisoquinoline-2-carbonyl]-6-methyl-N-(1-methylcyclopropyl)furo[2,3-d]pyrimidin-4-amine], for which the “PDE1b (pIC50)” value was greater than 8.

For `Cc1oc2ncnc(NC3(C)CC3)c2c1C(=O)N1CCc2cc(OCF)ccc2C1` [Example 765, 5-[6-(Fluoromethoxy)-1,2,3,4-tetrahydroisoquinoline-2-carbonyl]-6-methyl-N-(1-methylcyclopropyl)furo[2,3-d]pyrimidin-4-amine], the “PDE1b (pIC50)” value is reported as greater than 8.

Regarding `Cc1oc2ncnc(NC3(C)CC3)c2c1C(=O)N1CCc2ccc(OCF)cc2C1C` (stereo not shown) [Example 772, 5-[7-(Fluoromethoxy)-1-methyl-1,2,3,4-tetrahydroisoquinoline-2-carbonyl]-6-methyl-N-(1-methylcyclopropyl)furo[2,3-d]pyrimidin-4-amine], the “PDE1b (pIC50)” value is greater than 8.

For the molecule `Cc1oc2ncnc(NC3(C)CC3)c2c1C(=O)N1CC=C(c2nccc(C#N)n2)CC1` [Example 775, 2-(1-{6-Methyl-4-[(1-methylcyclopropyl)amino]furo[2,3-d]pyrimidine-5-carbonyl}-1,2,3,6-tetrahydropyridin-4-yl)pyrimidine-4-carbonitrile], the “PDE1b (pIC50)” value is greater than 8.

For the molecule `Cc1oc2ncnc(NC3(C)CC3)c2c1C(=O)N1CCC(c2ccn(C)n2)CC1` [Example 776, 6-Methyl-5-[4-(1-methyl-1H-pyrazol-3-yl)piperidine-1-carbonyl]-N-(1-methylcyclopropyl)furo[2,3-d]pyrimidin-4-amine], the “PDE1b (pIC50)” value is reported as greater than 8.

`Cc1oc2ncnc(NC3(C)CC3)c2c1C(=O)N1CCC(c2cc(C)n(C)n2)CC1` [Example 779, 5-[4-(1,5-Dimethyl-1H-pyrazol-3-yl)piperidine-1-carbonyl]-6-methyl-N-(1-methylcyclopropyl)furo[2,3-d]pyrimidin-4-amine]: the “PDE1b (pIC50)” value was greater than 8.

Still in this assay, the particulars now being: negative log of half-maximal molar inhibitory concentration; 200 nM FAM-cAMP; values given as bins; read-out: PDE1b (pIC50) (converted).
Consider `Cc1oc2ncnc(NC3(C)CC3)c2c1C(N)=O` [Example 761, 6-Methyl-4-[(1-methylcyclopropyl)amino]furo[2,3-d]pyrimidin-5-carboxamide], for which the IC50 is 100 to 1000 nM.

Turning to `Cc1oc2ncnc(NC3(C)CC3)c2c1C(=O)N1CCc2cccc(OCF)c2C1` [Example 766, 5-[8-(Fluoromethoxy)-1,2,3,4-tetrahydroisoquinoline-2-carbonyl]-6-methyl-N-(1-methylcyclopropyl)furo[2,3-d]pyrimidin-4-amine], the IC50 was 10 to 100 nM.

Turning to `Cc1oc2ncnc(NC3(C)CC3)c2c1C(=O)N1CCc2ccc(OCF)cc2C1` [Example 767, 5-[7-(Fluoromethoxy)-1,2,3,4-tetrahydroisoquinoline-2-carbonyl]-6-methyl-N-(1-methylcyclopropyl)furo[2,3-d]pyrimidin-4-amine], the IC50 was 10 to 100 nM.

Consider `Cc1oc2ncnc(NC3(C)CC3)c2c1C(=O)N1CCc2ncc(OCF)cc2C1` [Example 768, 5-[3-(Fluoromethoxy)-5,6,7,8-tetrahydro-1,6-naphthyridine-6-carbonyl]-6-methyl-N-(1-methylcyclopropyl)furo[2,3-d]pyrimidin-4-amine], for which the IC50 was 10 to 100 nM.

Take `Cc1oc2ncnc(NC3(C)CC3)c2c1C(=O)N1CCc2c(ccnc2OCF)C1` [Example 769, 5-[5-(Fluoromethoxy)-1,2,3,4-tetrahydro-2,6-naphthyridine-2-carbonyl]-6-methyl-N-(1-methylcyclopropyl)furo[2,3-d]pyrimidin-4-amine]: the IC50 is 10 to 100 nM.

Turning to `Cc1oc2ncnc(NC3(C)CC3)c2c1C(=O)N1CCC(c2ncc(OCF)cn2)CC1` [Example 770, 5-{4-[5-(Fluoromethoxy)pyrimidin-2-yl]piperidine-1-carbonyl}-6-methyl-N-(1-methylcyclopropyl)furo[2,3-d]pyrimidin-4-amine], the IC50 was 10 to 100 nM.

As for `Cc1oc2ncnc(NC3(C)CC3)c2c1C(=O)N1CCC(c2ccc(OCF)cc2)C1` (stereo not shown) [Example 771, 5-{3-[4-(Fluoromethoxy)phenyl]pyrrolidine-1-carbonyl}-6-methyl-N-(1-methylcyclopropyl)furo[2,3-d]pyrimidin-4-amine], the IC50 was 10 to 100 nM.

Take `COCc1nc2c(c(OCF)n1)CCN(C(=O)c1c(C)oc3ncnc(NC4(C)CC4)c13)C2` [Example 773, 5-[4-(Fluoromethoxy)-2-(methoxymethyl)-5H,6H,7H,8H-pyrido[3,4-d]pyrimidine-7-carbonyl]-6-methyl-N-(1-methylcyclopropyl)furo[2,3-d]pyrimidin-4-amine]: the IC50 is 10 to 100 nM.

For the molecule `Cc1oc2ncnc(NC3(C)CC3)c2c1C(=O)N1CC=C(c2ncc(F)cn2)C1` [Example 774, 5-[3-(5-Fluoropyrimidin-2-yl)-2,5-dihydro-1H-pyrrole-1-carbonyl]-6-methyl-N-(1-methylcyclopropyl)furo[2,3-d]pyrimidin-4-amine], the IC50 is 10 to 100 nM.

`Cc1oc2ncnc(NC3(C)CC3)c2c1C(=O)N1CCC(c2ncn(C)n2)CC1` [Example 777, 6-Methyl-5-[4-(1-methyl-1H-1,2,4-triazol-3-yl)piperidine-1-carbonyl]-N-(1-methylcyclopropyl)furo[2,3-d]pyrimidin-4-amine]: the IC50 is 10 to 100 nM.

Take `Cc1oc2ncnc(NC3(C)CC3)c2c1C(=O)N1CCC(c2cn(C)nn2)CC1` [Example 778, 6-Methyl-5-[4-(1-methyl-1H-1,2,3-triazol-4-yl)piperidine-1-carbonyl]-N-(1-methylcyclopropyl)furo[2,3-d]pyrimidin-4-amine]: the IC50 was 10 to 100 nM.

For the molecule `Cc1nc(C)c(C2CCN(C(=O)c3c(C)oc4ncnc(NC5(C)CC5)c34)CC2)[nH]1` [Example 780, 5-[4-(2,4-Dimethyl-1H-imidazol-5-yl)piperidine-1-carbonyl]-6-methyl-N-(1-methylcyclopropyl)furo[2,3-d]pyrimidin-4-amine], the IC50 was 100 to 1000 nM.

On to `Cc1oc2ncnc(NC3(C)CC3)c2c1C(=O)N1CCC(c2ccn(C(C)C)n2)CC1` [Example 781, 6-Methyl-N-(1-methylcyclopropyl)-5-{4-[1-(propan-2-yl)-1H-pyrazol-3-yl]piperidine-1-carbonyl}furo[2,3-d]pyrimidin-4-amine], for which the IC50 is 10 to 100 nM.

`Cc1oc2ncnc(NC3(C)CC3)c2c1C(=O)N1CCC(c2cnn(C)c2)CC1` [Example 782, 6-Methyl-5-[4-(1-methyl-1H-pyrazol-4-yl)piperidine-1-carbonyl]-N-(1-methylcyclopropyl)furo[2,3-d]pyrimidin-4-amine]: the IC50 was 10 to 100 nM.
